# According to US7244727B2, “Fused bicyclic nitrogen-containing heterocycles” (Japan Tobacco Inc., priority 2002, dated 2007):
# Assays:
# human DGAT1 = target: T1, human DGAT1 (Homo sapiens, UniProt O75907); experiment: DGAT Scintillation Proximity Assay (SPA) with membranes of insect cells expressing human flagtag DGAT1; type: biochemical; conditions: read-out: hDGAT1 IC50
# T1 construct: made in house; host or cells: insect cells (sf9, sf21 or High Five) infected with baculovirus; total cell membranes
# T1 sequence (O75907 1-488): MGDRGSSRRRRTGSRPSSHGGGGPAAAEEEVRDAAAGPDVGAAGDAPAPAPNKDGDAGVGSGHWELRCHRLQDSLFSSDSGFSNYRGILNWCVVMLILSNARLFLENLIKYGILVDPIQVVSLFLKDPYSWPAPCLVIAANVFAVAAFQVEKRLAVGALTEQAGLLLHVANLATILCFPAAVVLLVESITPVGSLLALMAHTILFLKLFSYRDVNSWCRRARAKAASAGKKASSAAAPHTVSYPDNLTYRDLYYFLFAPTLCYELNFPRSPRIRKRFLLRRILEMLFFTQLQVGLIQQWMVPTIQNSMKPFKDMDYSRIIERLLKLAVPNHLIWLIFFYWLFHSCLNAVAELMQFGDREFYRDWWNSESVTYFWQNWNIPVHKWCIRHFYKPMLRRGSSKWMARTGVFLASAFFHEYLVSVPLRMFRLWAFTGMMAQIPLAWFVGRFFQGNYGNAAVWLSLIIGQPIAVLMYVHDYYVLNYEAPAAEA
# Method in brief: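 Membranes (0.2 μg/well) from insect cells expressing human flag-tagged DGAT1 incubated with 10 μM compound and 200 μM dioleoyl glycerol substrate; mercuric chloride as inhibition control. Reaction stopped with WGA SPA beads in mercuric chloride, overnight bead coupling, then scintillation proximity signal read.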
IC50 (human DGAT1) [µM],melting point,SMILES
> 0.1,> 250 °C,Cc1nc(N)c2c(n1)OC(C)(C)C(c1ccc([C@H]3CC[C@H](CNC(=O)N(C)C)CC3)c(Cl)c1)=N2 [Example 6-16]
> 0.1,> 250 °C,Cc1nc(N)c2c(n1)OC(C)(C)C(c1ccc([C@H]3CC[C@H](CN4CCOC4=O)CC3)c(Cl)c1)=N2 [Example 6-17]
0.01 to 0.1,> 250 °C,Cc1nc(N)c2c(n1)OC(C)(C)C(c1ccc([C@H]3CC[C@H](CNC(=O)C(C)(C)O)CC3)c(Cl)c1)=N2 [Example 6-18]
0.01 to 0.1,225 to 226 °C,Cc1nc(N)c2c(n1)OC(C)(C)C(c1ccc([C@H]3CC[C@H](CN4CCCC(O)C4=O)CC3)c(Cl)c1)=N2 (stereo partly shown) [Example 6-19]
< 0.01,247 to 248 °C,CC1(C)Oc2nc(C(F)(F)F)nc(N)c2N=C1c1ccc([C@H]2CC[C@H](CC(=O)O)CC2)c(Cl)c1 [Example 6-20]
0.01 to 0.1,> 250 °C,CC1(C)Oc2nc(C(F)(F)F)nc(N)c2N=C1c1ccc([C@H]2CC[C@H](CN3CCOC3=O)CC2)c(Cl)c1 [Example 6-21]
0.01 to 0.1,147 °C (dec.),CC1(C)Oc2nc(C(F)(F)F)nc(N)c2N=C1c1ccc([C@H]2CC[C@H](CNC(N)=O)CC2)c(Cl)c1 [Example 6-22]
0.01 to 0.1,160 to 166 °C,Cc1nc(N)c2c(n1)OC(C)(C)C(c1ccc([C@H]3CC[C@H](CNC(N)=O)CC3)c(Cl)c1)=N2 [Example 6-23]
0.01 to 0.1,213 to 216 °C,CC1(C)Oc2nc(C(F)(F)F)nc(N)c2N=C1c1ccc([C@H]2CC[C@H](CNC(=O)CO)CC2)c(Cl)c1 [Example 6-24]
0.01 to 0.1,236 to 237 °C,CC1(C)Oc2nc(C(F)(F)F)nc(N)c2N=C1c1ccc([C@H]2CC[C@H](Cc3nc(=O)o[nH]3)CC2)c(Cl)c1 [Example 6-25]
< 0.01,> 230 °C,Cc1nc(N)c2c(n1)OC(C)(C)C(c1ccc([C@H]3CC[C@H](CC(=O)O)CC3)c(Cl)c1)=N2 [Example 6]
